For experiment [1], the target named is T1, hCAS (Homo sapiens, UniProt P55060).
T1 construct: endogenous in cells; host or cells: MiaPaCa-2 human pancreatic cancer cells
T1 sequence (P55060 1-971): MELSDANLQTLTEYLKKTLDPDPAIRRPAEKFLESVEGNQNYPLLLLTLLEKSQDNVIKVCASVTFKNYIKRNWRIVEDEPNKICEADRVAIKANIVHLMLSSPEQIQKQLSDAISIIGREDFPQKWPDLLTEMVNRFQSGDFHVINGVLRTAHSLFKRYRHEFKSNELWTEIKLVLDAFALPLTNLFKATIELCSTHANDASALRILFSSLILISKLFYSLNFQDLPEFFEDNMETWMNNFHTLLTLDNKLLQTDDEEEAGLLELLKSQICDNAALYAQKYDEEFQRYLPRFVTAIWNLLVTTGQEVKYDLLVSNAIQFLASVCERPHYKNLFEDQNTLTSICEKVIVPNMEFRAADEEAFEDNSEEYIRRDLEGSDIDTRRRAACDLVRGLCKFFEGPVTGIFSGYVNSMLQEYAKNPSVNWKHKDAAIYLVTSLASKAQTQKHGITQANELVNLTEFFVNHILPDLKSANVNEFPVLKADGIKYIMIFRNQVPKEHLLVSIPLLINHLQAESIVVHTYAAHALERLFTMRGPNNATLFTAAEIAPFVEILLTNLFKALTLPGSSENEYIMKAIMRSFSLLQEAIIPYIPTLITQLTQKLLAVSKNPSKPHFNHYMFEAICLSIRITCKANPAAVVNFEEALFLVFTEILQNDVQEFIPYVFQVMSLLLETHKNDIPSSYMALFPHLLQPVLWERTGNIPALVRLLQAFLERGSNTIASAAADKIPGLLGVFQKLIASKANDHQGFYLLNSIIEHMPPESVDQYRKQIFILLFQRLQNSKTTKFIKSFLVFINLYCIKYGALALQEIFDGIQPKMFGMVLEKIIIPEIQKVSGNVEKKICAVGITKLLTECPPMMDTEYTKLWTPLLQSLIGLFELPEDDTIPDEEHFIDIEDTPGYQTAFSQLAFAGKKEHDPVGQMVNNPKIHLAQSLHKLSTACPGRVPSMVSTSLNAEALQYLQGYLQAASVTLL
The experiment in a line: Streptavidin bead capture of hCAS from treated MiaPaCa-2 cells. Type of experiment: binding. Particulars: derived from biotinylated probes. The method, then:
To confirm that δ-T3 binds to hCAS in intact cells, biotinylated δ-T3 (B-δ-T3) was prepared by chemically coupling the —OH group of δ-T3 to the —COOH of biotin using a PEG-iodoactamide linker (FIG. 18).
MiaPaCa-2 human pancreatic cancer cells were treated for 24 hours with biotin alone (B), B-δ-T3 or B-TOCOPH. The cells were then lysed, and the lysates incubated with streptavidin beads, and the captured proteins processed for Western blotting.

In experiment [2] the test system is human CCSCs. Kind of experiment: Orthotopic (cecum) model of luciferase expressing human CCSCs in NOD-SCID mice. Type of experiment: in vivo. Here is the method:
FIGS. 8A, 8B, 8C, and 8D show growth of cecal tumor volume (FIGS. 8A & 8B) and liver metastasis score (FIGS. 8C & 8D) in orthotopic model of CCSCs after treatment with vehicle, aspirin, d-T3, and aspirin+d-T3.
In vivo model of human CCSC were developed by implanting the stably transfected luciferase expressing CCSCs in the cecum of NOD-SCID mice. In this model, tumor growth, metastasis, and survival are monitored twice weekly by IP injection of luciferin (150 mg/kg body weight) and imaged using the IVIS 200 Bioluminescence imaging system. […] These findings strongly indicate that d-T3 targets CCSCs and enhances the ability of aspirin to target these cells.

The test system of experiment [3] is Oct4, Nanog, Sox2, KLF4, c-myc, c-PARP. Kind of experiment: Western blot of stem cell transcription factors and c-PARP in CCSCs. Format: cell-based, human.
Experiment [4] addresses T1, hCAS. Kind of experiment: hCAS protein levels in MiaPaCa-2 cells. Format: cell-based.
Experiment [5] has as its system HT-29. Kind of experiment: Apoptosis induction in HT-29. Type of experiment: cell-based, human.
Experiment [6] concerns CCSCs. The experiment in a line: miRNA profiles in CCSCs. Format: cell-based, human. To be noted: 24-hour treatment; aspirin 5 mM, d-T3 10 μM. An excerpt: Given the results, and without intending to be bound by any theory, it appears that the induction of apoptosis can be one mechanism by which d-T3 prevents CRC and augments CRC prevention activity. BID knockout can diminish this effect. The biorepository as well as materials generated from studies can be used to explore other mechanisms of d-T3 action such as anti-inflammatory, mediation of the immune system, anti-angiogenesis, and alterations in metabolism. To this end, miRNA profiles were conducted that are altered with d-T3, aspirin, and d-T3 with aspirin treatment in CCSCs. To discover early miRNAs that are likely to influence activity, these cells were deliberately treated with doses of these agents at a duration when there were no phenotypic changes of apoptosis.

These results are taken from patent US20210205264A1, “USE OF DELTA-TOCOTRIENOL FOR TREATING CANCER” (H. LEE MOFFITT CANCER CENTER & RESEARCH INSTITUTE INC., priority 2018, published 2021).

For `CC(C)=CCC/C(C)=C/CC/C(C)=C/CC[C@]1(C)CCc2cc(O)cc(C)c2O1` [d-T3, δ-tocotrienol], the “binds hCAS in intact pancreatic cancer cells” value in experiment [1] is on record as “binds hCAS”. Besides, in experiment [2], the “growth of human CRC stem cells (cecal tumor)” value is “inhibited”. Further, the “metastases of human CRC stem cells” value in experiment [2] (liver metastasis) is “inhibited”. Besides, in experiment [3], the “expression of Oct4, Nanog, Sox2, KLF4, and c-myc” value is reported as “downregulation”; the “expression of c-PARP” value is given as “upregulation”. In experiment [4], the “time at which decrease of hCAS levels starts” value is 6 h and the “time of maximum effect on hCAS levels” value was in the range of 24 to 48 h. The hCAS levels entry in experiment [4] (d-T3 50 uM) was “decreases the hCAS levels”. The apoptosis entry in experiment [5] is listed as “significantly induced apoptosis”. Further, in experiment [6], the “down-regulation of miRNAs compared with vehicle (number)” value amounted to 9 miRNAs and the “up-regulation of miRNAs compared with vehicle (number)” value was 7 miRNAs.
